Measured values taken from PubChem BioAssay (NCI).
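Test compounds were applied to cells in 96-well plates for 48 hours at 5 doses. Here, GI50 denotes the concentration required for 50% inhibition of growth. The concentration for full growth arrest is given as TGI.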

Assays:
Assay in all cases: NCI tumour cell line growth inhibition, 48 h
NCI-H23 lung = test system: NCI-H23 lung
NCI/ADR-RES ovarian = test system: NCI/ADR-RES ovarian
OVCAR-5 ovarian = test system: OVCAR-5 ovarian
MDA-MB-435 = test system: MDA-MB-435
HCC-2998 colon = test system: HCC-2998 colon
HCT-15 colon = test system: HCT-15 colon
EKVX NSCLC = test system: EKVX NSCLC
MOLT-4 leukemia = test system: MOLT-4 leukemia
K-562 leukemia = test system: K-562 leukemia
OVCAR-4 ovarian = test system: OVCAR-4 ovarian

Row | Structure (SMILES) | TGI (NCI-H23 lung) | TGI (NCI/ADR-RES ovarian) | TGI (OVCAR-5 ovarian) | TGI (MDA-MB-435) | TGI (HCC-2998 colon) | TGI (HCT-15 colon) | TGI (EKVX NSCLC) | TGI (MOLT-4 leukemia) | GI50 (NCI-H23 lung) | GI50 (NCI/ADR-RES ovarian) | GI50 (K-562 leukemia) | TGI (K-562 leukemia) | GI50 (OVCAR-5 ovarian) | GI50 (MDA-MB-435) | GI50 (HCC-2998 colon) | GI50 (HCT-15 colon) | GI50 (EKVX NSCLC) | GI50 (MOLT-4 leukemia) | TGI (OVCAR-4 ovarian) | GI50 (OVCAR-4 ovarian)
1 | CC(C(N)C(=O)NC(C(=O)O)C1OC(n2ccc(=O)[nH]c2=O)C(O)C1O)C(O)c1ccc(O)cn1 (centres undefined) | > 100 µM | > 100 µM | > 100 µM | > 100 µM | > 100 µM | > 100 µM | > 100 µM | > 100 µM | – | – | – | – | – | – | – | – | – | – | – | –
2 | O=C1C=CC(=O)N1c1cccc(N2C(=O)C=CC2=O)c1 | 7.07 µM | 6.14 µM | 4.06 µM | 16.2 µM | 26.4 µM | 3.93 µM | 83.1 µM | 7.73 µM | 2.54 µM | 2.38 µM | 2.67 µM | 7.7 µM | 1.81 µM | 3.85 µM | 12.9 µM | 1.91 µM | 19.1 µM | 2.74 µM | – | –
3 | O=C1C2CCN(CC2)C1(CO)CO | 61.9 µM | 60 µM | 45.9 µM | > 100 µM | – | 34.6 µM | 99.4 µM | 23.6 µM | – | – | – | 54.5 µM | – | – | – | – | – | – | 43 µM | –
4 | O=C(CCn1[nH]c(=O)c(Cl)c(Cl)c1=O)NNC(=O)C[n+]1ccccc1 | > 100 µM | – | > 100 µM | – | > 100 µM | > 100 µM | > 100 µM | > 100 µM | – | – | – | > 100 µM | – | – | – | – | – | – | > 100 µM | –
5 | CCn1c(-c2nonc2N)nc2c(C#CC(C)(C)O)ncc(OC[C@H]3CCCNC3)c21 | > 96 µM | > 100 µM | 58.4 µM | 30.3 µM | > 100 µM | > 100 µM | – | 31.5 µM | 23.5 µM | > 100 µM | 11.4 µM | > 89.2 µM | 27.6 µM | 13.7 µM | 21.2 µM | 20.3 µM | – | 0.23 µM | 92.2 µM | 31.4 µM
6 | CCCCCCCCCC(=O)OCC1OC(n2cc(F)c(=O)[nH]c2=O)C(NC(=O)OCc2ccccc2)C(OC(=O)CCCCCCCCC)C1O (centres undefined) | 62 µM | – | – | – | > 100 µM | > 100 µM | > 100 µM | > 100 µM | – | – | – | > 100 µM | – | – | – | – | – | – | 40.6 µM | –
7 | Nc1ccc(-c2cccs2)cc1NC(=O)c1ccc(CCCC(=O)Nc2ccc(C3CC3N)cc2)cc1 (centres undefined) | – | > 100 µM | – | 4 µM | – | > 100 µM | > 100 µM | – | – | > 100 µM | – | – | – | 1.74 µM | – | 5.99 µM | 3.5 µM | – | 3.3 µM | 1.52 µM
8 | C=C1CC2CC(O)CC(C1)C2 (centres undefined) | > 100 µM | – | > 100 µM | – | – | – | > 100 µM | > 100 µM | – | – | – | – | – | – | – | – | – | – | > 100 µM | –
9 | CSc1snc2sc3c(Cl)nnnc3c12 | 36 µM | – | 31 µM | – | 21.2 µM | 24.9 µM | 38.6 µM | 11.4 µM | – | – | – | 5.73 µM | – | – | – | – | – | – | 29.5 µM | –
10 | O=C(CC(=O)c1cccc2ccccc12)C(=O)NC1C2CC3CC(C2)CC1C3 (centres undefined) | > 100 µM | – | > 100 µM | – | > 100 µM | > 100 µM | > 100 µM | > 100 µM | – | – | – | > 100 µM | – | – | – | – | – | – | > 100 µM | –
11 | Nc1n[n+](-c2ccccc2)no1 | > 100 µM | – | > 100 µM | – | > 100 µM | > 100 µM | > 100 µM | > 100 µM | – | – | – | > 100 µM | – | – | – | – | – | – | > 100 µM | –
12 | CC(=O)O[C@@]1(C)[C@@H](C)C(=O)O[C@@H]2CCN3CC=C(COC(=O)[C@]1(C)O)[C@H]23 | > 100 µM | – | > 100 µM | – | > 100 µM | > 100 µM | – | > 100 µM | – | – | – | > 100 µM | – | – | – | – | – | – | > 100 µM | –
13 | CC(=O)c1c(CO[N+](=O)[O-])n([O-])c2ccccc2[n+]1=O | > 100 µM | > 100 µM | > 100 µM | > 100 µM | – | > 100 µM | > 100 µM | > 100 µM | – | – | – | > 100 µM | – | – | – | – | – | – | > 100 µM | –
14 | COc1ccc2oc(C(=O)O)c3c2c1CCC3CCC(=O)O (centres undefined) | > 100 µM | – | > 100 µM | – | > 100 µM | – | > 100 µM | > 100 µM | – | – | – | > 100 µM | – | – | – | – | – | – | > 100 µM | –
15 | CC1(C)NCCC[C@]2(C)[C@H]3CC[C@@H]4[C@H]5[C@H](C(=O)/C=C/c6ccccn6)CC[C@]5(CO)CC[C@@]4(C)[C@]3(C)CC[C@@H]12 | 14 µM | 13.9 µM | 16.9 µM | 4.9 µM | – | 3.89 µM | 23.4 µM | 7.18 µM | 3.33 µM | 3.43 µM | 2.19 µM | > 100 µM | 3.69 µM | 2.11 µM | – | 1.84 µM | 5.51 µM | 2.35 µM | 13 µM | 3.51 µM
16 | CCOC(=O)c1cnc2sc3ccc4ccccc4c3n2c1=O | > 100 µM | – | > 100 µM | – | > 100 µM | > 100 µM | > 100 µM | > 100 µM | – | – | – | > 100 µM | – | – | – | – | – | – | > 100 µM | –
17 | COc1cc(C2=N/C(=C/c3cccs3)C(=O)O2)cc(OC)c1OC | > 100 µM | – | > 100 µM | > 100 µM | > 100 µM | > 100 µM | > 100 µM | > 100 µM | – | – | – | > 100 µM | – | – | – | – | – | – | > 100 µM | –
18 | Cc1ccc(C(=O)/C(=C\c2ccc([N+](=O)[O-])cc2)S(=O)Cc2ccc(Cl)cc2)cc1 (centres undefined) | 3.89 µM | 7.97 µM | 3.91 µM | 4 µM | 3.36 µM | 3.75 µM | 4.02 µM | 6.14 µM | 1.83 µM | 2.72 µM | – | – | 1.97 µM | 1.87 µM | 1.82 µM | 1.61 µM | 1.88 µM | 1.2 µM | 3.85 µM | 1.85 µM
19 | O=C(N/N=C1\C(=O)N(c2nccs2)C(=O)C(=O)C1c1nc2ccccc2s1)c1ccccc1O (centres undefined) | > 100 µM | – | > 100 µM | – | > 100 µM | > 100 µM | > 100 µM | – | – | – | – | > 100 µM | – | – | – | – | – | – | > 100 µM | –
20 | Cc1[nH]c(=O)[nH]c1C(=O)c1ccc(-n2ccnc2)cc1 | – | – | > 100 µM | – | > 100 µM | > 100 µM | – | > 100 µM | – | – | – | > 100 µM | – | – | – | – | – | – | > 100 µM | –
21 | N#CC1(C#N)C2C=CC(c3coc4cccc2c34)C1(C#N)C#N (centres undefined) | 36.9 µM | – | 30.8 µM | – | 30 µM | 19.2 µM | 33 µM | 6.35 µM | – | – | – | 6.22 µM | – | – | – | – | – | – | 47.9 µM | –
